From the supplement of paper PMC4862054

Key:
Assay in all cases: normalised viability (% of control), CellTiter-Blue; higher = more viable cells (about 100 = DMSO control)
Conditions in all cases: incubation time: 72 h
BT-474 = system: BT-474
How it was run: (§1)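 The reported figure is normalised viability at a single listed concentration of the series. Breast cancer cell lines (20 µl suspension) went onto 384-well plates holding compound in 5 µl medium for 72 h. CellTiter-Blue (2.5 µl, 2 h, 37 °C) was read by fluorescence at 560/590 nm, and each plate was scaled to vehicle at 100 and a positive kill control at 0.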

BT-549 = system: BT-549
How it was run: as §1

CAL-120 = system: CAL-120
How it was run: as §1

CAL-148 = system: CAL-148
How it was run: as §1

CAL-51 = system: CAL-51
How it was run: as §1

CAL-85-1 = system: CAL-85-1
How it was run: as §1

DU-4475 = system: DU-4475
How it was run: as §1

HCC1143 = system: HCC1143
How it was run: as §1

HCC1599 = system: HCC1599
How it was run: as §1

HCC1937 = system: HCC1937
How it was run: as §1

HDQ-P1 = system: HDQ-P1
How it was run: as §1

Hs578T = system: Hs578T
How it was run: as §1

MDA-MB-231 = system: MDA-MB-231
How it was run: as §1

MDA-MB-436 = system: MDA-MB-436
How it was run: as §1

MDA-MB-453 = system: MDA-MB-453
How it was run: as §1

MDA-MB-468 = system: MDA-MB-468
How it was run: as §1

MFM-223 = system: MFM-223
How it was run: as §1

SK-BR-3 = system: SK-BR-3
How it was run: as §1

Cc1cccc(-c2nn3c(c2-c2ccnc4ccc(C(N)=O)cc24)CCC3)n1
normalised viability [%]
Conditions | 0.3 nM | 1 nM | 3 nM | 10 nM | 100 nM | 1000 nM
BT-474 | – | 120 | – | – | 110 | 130
BT-549 | – | 93.8 | – | – | 98.3 | 109
CAL-51 | 100 | – | 93.8 | 96.5 | – | –
CAL-85-1 | 99.3 | – | 94.2 | 101 | – | –
CAL-120 | – | 97.9 | – | – | 92.8 | 106
CAL-148 | 93.4 | – | 95.2 | 92.9 | – | –
DU-4475 | 113 | – | 100 | 115 | – | –
HCC1143 | – | 98.3 | – | – | 91 | 91.1
HCC1599 | – | 86.8 | – | – | 91.6 | 96.8
HCC1937 | – | 157 | – | – | 108 | 126
HDQ-P1 | 120 | – | 117 | 134 | – | –
Hs578T | – | 106 | – | – | 112 | 89.9
MDA-MB-231 | – | 109 | – | – | 128 | 111
MDA-MB-436 | – | 120 | – | – | 96.9 | 128
MDA-MB-453 | 122 | – | 108 | 97.2 | – | –
MDA-MB-468 | – | 106 | – | – | 120 | 105
MFM-223 | – | 96.6 | – | – | 96.5 | 93.6
SK-BR-3 | – | 116 | – | – | 101 | 103
